What was measured:
[1] = not given; remark: listed apart in the source
[2] = Hydrogelation / self-assembly under physiological conditions; format: physicochemical; conditions: for hydrogel formation: 1 wt.% (ca. 15 mM), pH 7.4; for Tgel-sol: hydrogel
Description: (§1) For biomedical applications, the self-assembly properties of Ben-IKVAV and PFB-IKVAV were investigated under physiological conditions. […] The corresponding microscopic morphologies were examined by transmission electron microscopy (TEM). […] The nanofibers are intertwined to form fiber bundles with a width of about 17 ± 1 nm. In contrast, PFB-IKVAV produces short nanofibers (diameter around 10 ± 1 nm). These fibrous nanostructures are distributed in water and entangled within a highly organized peptide-amphiphile nanofibers network (i.e., Ben-IKVAV and PFB-IKVAV), allowing for the formation of stable hydrogels. Moreover, the Tgel-sol of Ben-IKVAV and PFB-IKVAV were 65 and 55 °C, respectively. […] Furthermore, the self-assembly of Ben-IKVAV and PFB-IKVAV are viscoelastic gels, because the values of the G′ are higher than those of the loss modulus (G″) in both gels.

[3] = Negatively stained TEM of the hydrogels; format: physicochemical; conditions: 1 wt.%, pH 7.4
Description: as §1
Figure 2 Optical (insets) and negatively stained TEM images of (A) Ben-IKVAV and (B) PFB-IKVAV at a concentration of 1 wt.% under pH 7.4. (Scale bar: 100 nm).

[4] = Oscillatory rheology of the hydrogels; format: physicochemical; conditions: 1 wt.%, pH 7.4, oscillatory rheology, ω = 0.1–100 rad·s^−1
Description: as §1
Figure 3 Frequency-dependent (ω = 0.1–100 rad·s^−1) rheological measurement of Ben-IKVAV (circle) and PFB-IKVAV (square) at a concentration of 1 wt.% under pH 7.4 (solid for G′ and open for G′′).

[5] = Thioflavin T (ThT) fluorescence assay for fibrillar peptide structures; format: physicochemical; conditions: ratio of ThT emission intensities (I0: without adding hydrogelators), emission at 484 nm
Description: (§2) Since Ben-IKVAV and PFB-IKVAV could self-assemble to form the network of nanofibers and afford the hydrogels, we further studied the driving force for the intermolecular interactions of the hydrogelators using spectroscopic characterization. […] The UV-vis absorption and circular dichroism (CD) spectra of Ben-IKVAV and PFB-IKVAV in water and methanol are presented in Figure 4. The absorption peaks of Ben-IKVAV are at 262 nm and 254 nm in water and methanol, respectively, indicating the redshift feature caused by the aggregation formation in an aqueous solution. […] CD spectra were recorded to understand the structural properties and molecular arrangement of Ben-IKVAV and PFB-IKVAV (Figure 4C,D). At low concentrations of Ben-IKVAV and PFB-IKVAV (50 and 500 μM) in water, no CD signals were detected in the wavelength region 190–350 nm. […] In addition, Fourier-transform infrared spectroscopy (FT-IR) was employed to verify the hydrogen interactions between molecules in the self-assembled state. […] Since thioflavin T (ThT) is a well-known fluorescent dye utilized to identify the presence of amyloid fibrils, we used the ThT fluorescence assay to further confirm the fibrillar peptide structures present in Ben-IKVAV and PFB-IKVAV. It is known that when ThT binds to β-amyloid fibrils, a remarkable enhancement in fluorescence intensity can be detected at 484 nm. […]

[6] = Concentration-dependent circular dichroism in water; format: physicochemical; conditions: CD: no signal at 50 and 500 μM, Cotton effect at 1000 μM
Description: as §2

hMSCs [7] = experiment: MTT cell viability test; format: cell-based, human; conditions: for cell viability: 500 μM, 48 h, ODsample/ODcontrol; for IC50: 10–500 μM, 24 and 48 h, read-out: half-inhibitory concentration (IC50)
Protocol: To evaluate the potential biological applications of Ben-IKVAV and PFB-IKVAV, we performed a biocompatibility test of these hydrogelators against hMSCs through MTT [3-(4,5-dimethylthiazol-2-yl)-2,5-diphenyltetrazolium bromide] assay, and the results are presented in Figure 6. The concentrations of Ben-IKVAV and PFB-IKVAV were selected in the range of 10–500 μM, and the cell viability measurements were processed at 24 and 48 h after cell seeding.
The biocompatibilities of Ben-IKVAV and PFB-IKVAV were measured by the MTT cell viability test. The hMSCs were seeded in 24-well plates (density: 50,000 cells per well) with Dulbecco’s modified Eagle’s medium (DMEM, 0.5 mL) containing 10% […] and 1% penicillin/streptomycin solution and then incubated for 24 h. Compounds of Ben-IKVAV and PFB-IKVAV at different concentrations (10, 50, 100, 200, and 500 µM) were added when cells were plated. After 24 and 48 h, the medium was replaced with fresh medium supplemented with MTT reagent (4 mg mL^–1, 0.5 mL per well). After another 4 h, the medium containing MTT was removed, and DMSO (0.5 mL per well) was added to dissolve the formazan crystals. Each of the 24 wells was transferred to a 96-well plate. The optical densities (ODs) of the resulting solutions were measured at 595 nm using an absorbance microplate reader (Infinite F50, TECAN, Männedorf, Switzerland). Cells that had not been subjected to treatment with the compounds were used as the control. The cell viability percentage (%) was calculated from the expression ODsample/ODcontrol.

hMSCs [8] = experiment: Neural differentiation of hMSCs in neural induction medium (cell morphology, neurite outgrowth); format: cell-based, human; conditions: 1000 μM in NIM; for differentiation of hMSCs into neuron-like cells: cultured 0, 2 and 7 days; for cell morphology and axon extension length (average neurite outgrowth length) versus NIM control: days 2 and 7, n = 50
Protocol: Since Ben-IKVAV and PFB-IKVAV are biocompatible, we then diluted 1 wt.% of Ben-IKVAV and PFB-IKVAV hydrogels with basal medium and neural induction medium (NIM) to 1000 μM, respectively, and cultured them with hMSCs for 0, 2, and 7 days (Figure S2 and Figure 7). […] The fibrous structures of Ben-IKVAV or PFB-IKVAV scattered in the culture medium (NIM) are combined with cell surface receptors to promote neural differentiation. To understand the effect of neural differentiation of hMSCs, the average neurite outgrowth lengths on days 2 and 7 were measured in the control and experimental groups (i.e., Ben-IKVAV in NIM and PFB-IKVAV in NIM).
The hMSCs were grown in 24-well plates (density: 2.4 × 10^5 cells per well) in NIM supplemented with 1% penicillin/streptomycin, 10^−7 M dexamethasone, 50 μg/mL L-Ascorbic acid-2 phosphate, 50 μM indomethacin, 10 μg/mL insulin, and 0.45 mM 3-isobutyl-1-methyl-xanthine. The cells cultured in a basal medium were used as a negative control.

hMSCs [9] = experiment: RT-qPCR analysis of neuronal-specific markers (Nestin, β-tubulin, SNCA, MAP2); format: cell-based, human; conditions: 1000 µM in NIM
Protocol: To investigate whether IKVAV derivatives can effectively promote the differentiation of stem cells into neural cells, we diluted 1 wt.% of Ben-IKVAV and PFB-IKVAV hydrogels with NIM to 1000 µM, respectively, and cultured hMSCs for 0, 2, and 7 days. The mRNA was collected from NIM, NIM in the presence of Ben-IKVAV, and NIM in the presence of PFB-IKVAV and subjected to real-time quantitative polymerase chain reaction (RT-qPCR) analysis. The expression of neuronal-specific markers, Nestin, β-tubulin, SNCA, and MAP2 are analyzed in this work.
Total RNA was isolated from the control and induced (Neurogenic) hMSCs and quantified with a spectrophotometer (NanoPhotometer™ Pearl Design Edition, Westlake Village, CA, USA). Complementary DNA (cDNA) was synthesized from the total purified RNA (1 μg) using a MMLV High-Performance Reverse Transcriptase kit with a 10 μM OligodT primer at 37 °C for 1 h. […] The RT-qPCR reaction was carried out with initial denaturation at 95 °C for 10 min, followed by 40 cycles of PCR at 95 °C for 15 s, and 60 °C for 60 s.

MAP2 in hMSCs = experiment: Immunofluorescent staining for neuronal-specific marker MAP2; format: cell-based, human; conditions: neural induction medium in the presence of the peptide, day 7
Description: After neuronal inductions of hMSCs, immunofluorescent staining for neuronal-specific markers of β-tubulin and MAP2 was achieved. Figure 10 presents immunostaining for β-tubulin (green) with DAPI (blue) co-staining in hMSCs cultured with NIM (control), NIM in the presence of Ben-IKVAV, and NIM in the presence of PFB-IKVAV for days 1, 2, and 7. It can be seen that there is no β-tubulin stained on day 1. […] On the 7th day of culture, a more evident increase of β-tubulin was observed. […] It is speculated that the nuclear entry may be related to the initiation of the regulation of the gene level in the nucleus to make the differentiation more complete. […] After 7 days of differentiation, the cells gradually tended to mature nerve cells. Among these materials, PFB-IKVAV is the best one for helping cell differentiation.
After neuronal inductions of hMSCs, immunostaining was performed for neuronal-specific markers. Cells were fixed with 4% formaldehyde for 15 min and permeabilized with PBST buffer (0.1% Triton X-100 supplemented with BSA). After permeabilization, cells were blocked with Blocking buffer (PBST buffer + 5% serum) for 30 min and then incubated with primary antibodies β-tubulin (1:100) and MAP2 (1:200) at 4 °C overnight. […] Finally, cells were observed under a fluorescence microscope.

[10] = not given; remark: listed apart in the source
[11] = not given; remark: listed apart in the source

Substance | new absorption band in water | FT-IR absorption peak (hydrogen bonding) [1] | hydrogel formation [2] | Tgel-sol [2] | nanofiber diameter [3] | storage modulus (G′) [4] | ThT fluorescence enhancement ratio [5] | concentration at which the peptide self-assembles into high-order supramolecular structures [6] | cell viability (hMSCs [7]) | IC50 (hMSCs [7]) | differentiation of hMSCs into neuron-like cells (hMSCs [8]) | cell morphology and axon extension length (average neurite outgrowth length) versus NIM control (hMSCs [8]) | cell differentiation ability (comparison of the two peptides) (hMSCs [9]) | immunofluorescent staining for MAP2 relative to neural induction medium (control) (MAP2 in hMSCs) | absorption peak in water [10] | absorption peak in methanol [11] | width of fiber bundles [3]
perfluorophenyl-capped Ile-Lys-Val-Ala-Val | 285 nm | 1630 cm⁻¹ |  |  |  |  |  |  |  |  |  |  |  |  |  |  | 
perfluorophenyl-capped Ile-Lys-Val-Ala-Val [PFB-IKVAV, IKVAV N-terminally coupled with 2-(perfluorophenyl)acetic acid; hydrogelator] |  |  | form white translucent hydrogels | 55 °C | around 10 ± 1 nm | 2.4 kPa | 210 | higher than 1000 μM | over 75% | > 500 µM | could successfully differentiate hMSCs into neuron-like cells | no significant difference | better cell differentiation ability than Ben-IKVAV | 4.6 times |  |  | 
phenyl-capped Ile-Lys-Val-Ala-Val |  | 1630 cm⁻¹ |  |  |  |  |  |  |  |  |  |  |  |  | 262 nm | 254 nm | 
phenyl-capped Ile-Lys-Val-Ala-Val [Ben-IKVAV, phenyl-capped pentapeptide; IKVAV N-terminally coupled with 2-phenylacetic acid; hydrogelator] |  |  | form white translucent hydrogels | 65 °C | 4 ± 2 nm | 32.0 kPa | 140 | higher than 1000 μM | over 75% | > 500 µM | could successfully differentiate hMSCs into neuron-like cells | no significant difference |  |  |  |  | about 17 ± 1 nm

Reference: PMC9267992, “Synthesis, Self-Assembly, and Cell Responses of Aromatic IKVAV Peptide Amphiphiles” (Molecules, 2022)
